According to ChEMBL document CHEMBL5321239, “Exploration of imatinib and nilotinib-derived templates as the P2-Ligand for HIV-1 protease inhibitors: Design, synthesis, protein X-ray structural studies, and biological evaluation” (Eur J Med Chem, 2023):

Assays:
[1] = tested on: Human immunodeficiency virus; test: Antiviral activity against HIV LAI infected in human MT2 cells assessed as inhibition of viral growth; format: functional, organism-based; conditions: Human immunodeficiency virus 1, LAI
[2] = biological target: Human immunodeficiency virus type 1 protease (Human immunodeficiency virus 1, UniProt Q72874); test: Inhibition of HIV-1 protease expressed in Escherichia coli assessed as inhibition constant using Ac-Thr-Ile-Met-Met-Gln-Arg as substrate preincubated for 10 mins followed by substrate addition by HPLC analysis

CC(C)CN(C[C@@H](O)[C@H](Cc1ccccc1)NC(=O)O[C@H]1CO[C@H]2OCC[C@H]21)S(=O)(=O)c1ccc(N)cc1
IC50 [1]: 2.1 nM

COCc1csc(Nc2ccc(C)c(C(=O)N[C@@H](Cc3ccccc3)[C@H](O)CN(CC(C)C)S(=O)(=O)c3ccc(OC)cc3)c2)n1
IC50 [1]: 630 nM

COc1ccc(S(=O)(=O)N(CC(C)C)C[C@@H](O)[C@H](Cc2cc(F)cc(F)c2)NC(=O)c2ccc(C)c(Nc3nccc(-c4cccnc4)n3)c2)cc1
IC50 [1]: 124 nM

COc1ccc(S(=O)(=O)N(CC(C)C)C[C@@H](O)[C@H](Cc2ccccc2)NC(=O)c2cc(C)cc(Nc3nc(-c4cccnc4)cs3)c2)cc1
IC50 [1]: > 1000 nM

COc1ccc(S(=O)(=O)N(CC(C)C)C[C@@H](O)[C@H](Cc2ccccc2)NC(=O)c2cccc(Nc3nc(C(F)(F)F)cs3)c2C)cc1
IC50 [1]: > 1000 nM

COc1ccc(S(=O)(=O)N(CC(C)C)C[C@@H](O)[C@H](Cc2ccccc2)NC(=O)c2ccc(C)c(Nc3nc(C)cs3)c2)cc1
Ki [2]: 26.5 nM
IC50 [1]: > 1000 nM

Cc1ccc(C(=O)N[C@@H](Cc2cc(F)cc(F)c2)[C@H](O)CN(CC(C)C)S(=O)(=O)c2ccc(N)cc2)cc1Nc1nccc(-c2cccnc2)n1
IC50 [1]: 212 nM

COc1ccc(S(=O)(=O)N(CC(C)C)C[C@@H](O)[C@H](Cc2ccccc2)NC(=O)c2cc(C)cc(Nc3nc(C)cs3)c2)cc1
IC50 [1]: > 1000 nM

COc1ccc(S(=O)(=O)N(CC(C)C)C[C@@H](O)[C@H](Cc2ccccc2)NC(=O)c2ccc(C)c(Nc3nccc(-c4cccnc4)n3)c2)cc1
Ki [2]: 0.028 nM
IC50 [1]: 154 nM

COc1ccc(S(=O)(=O)N(CC(C)C)C[C@@H](O)[C@H](Cc2ccccc2)NC(=O)c2cccc(Nc3nc(-c4cccnc4)cs3)c2C)cc1
Ki [2]: 19.3 nM
IC50 [1]: > 1000 nM

Cc1ccc(C(=O)N[C@@H](Cc2ccccc2)[C@H](O)CN(CC(C)C)S(=O)(=O)c2ccc(N)cc2)cc1Nc1nccc(-c2cccnc2)n1
IC50 [1]: 66.8 nM

COc1ccc(S(=O)(=O)N(CC(C)C)C[C@@H](O)[C@H](Cc2ccccc2)NC(=O)c2ccc(C)c(Nc3nc(C(F)(F)F)cs3)c2)cc1
IC50 [1]: > 1000 nM

COc1ccc(S(=O)(=O)N(CC(C)C)C[C@@H](O)[C@H](Cc2ccccc2)NC(=O)c2ccc(C)c(Nc3nc(-c4cccnc4)cs3)c2C)cc1
IC50 [1]: 510 nM

COc1ccc(S(=O)(=O)N(CC(C)C)C[C@@H](O)[C@H](Cc2ccccc2)NC(=O)c2cc(Nc3nc(-c4cccnc4)cs3)ccc2C)cc1
Ki [2]: 8.7 nM
IC50 [1]: 580 nM

COc1ccc(S(=O)(=O)N(CC(C)C)C[C@@H](O)[C@H](Cc2ccccc2)NC(=O)c2cccc(Nc3nc(C)cs3)c2C)cc1
IC50 [1]: > 1000 nM

COc1ccc(S(=O)(=O)N(CC(C)C)C[C@@H](O)[C@H](Cc2ccccc2)NC(=O)c2cc(Nc3nc(C)cs3)ccc2C)cc1
IC50 [1]: > 1000 nM

COc1ccc(S(=O)(=O)N(CC(C)C)C[C@@H](O)[C@H](Cc2ccccc2)NC(=O)c2ccc(C)c(Nc3nc(-c4cccnc4)cs3)c2)cc1
IC50 [1]: 390 nM
